From patent publication US8829034B2, “Compounds which modulate the CB2 receptor” (Boehringer Ingerlheim International GmbH, priority 2006, dated 2014)
Read-outs that look alike come from different tables or passages of the source.

Biological target: T1, human CB2R (Homo sapiens, UniProt P34972)
T1 construct: host or cells: CHO cells
Assay: CB2R mediated modulation of cAMP synthesis
Type: cell-based
Conditions: for agonistic activity: found through the use of the above described assays
Experimental: B. CB2R Mediated Modulation of cAMP Synthesis:
CHO cells expressing human CB2R (Euroscreen) were plated at a density of 5000 cells per well in 384 well plates and incubated overnight at 37° C. After removing the media, the cells were treated with test compounds diluted in stimulation buffer containing 1 mM IBMX, 0.25% BSA and 10 uM Forskolin. The assay was incubated for 30 minutes at 37° C. Cells were lysed and the cAMP concentration was measured using DiscoverX-XS cAMP kit, following the manufacturer's protocol. In this setting, agonists will decrease forskolin induced production of cAMP while inverse agonists will further increase forskolin induced production of cAMP. EC50 of agonists were calculated as follows. The maximal amount of cAMP produced by forskolin compared to the level of cAMP inhibited by 1 uM CP55940 is defined as 100%. The EC50 value of each test compound was determined as the concentration at which 50% of the forskolin-stimulated cAMP synthesis was inhibited. Data was analyzed using a four-parameter logistic model. (Model 205 of XLfit 4.0).

T1 sequence (P34972 whole entry): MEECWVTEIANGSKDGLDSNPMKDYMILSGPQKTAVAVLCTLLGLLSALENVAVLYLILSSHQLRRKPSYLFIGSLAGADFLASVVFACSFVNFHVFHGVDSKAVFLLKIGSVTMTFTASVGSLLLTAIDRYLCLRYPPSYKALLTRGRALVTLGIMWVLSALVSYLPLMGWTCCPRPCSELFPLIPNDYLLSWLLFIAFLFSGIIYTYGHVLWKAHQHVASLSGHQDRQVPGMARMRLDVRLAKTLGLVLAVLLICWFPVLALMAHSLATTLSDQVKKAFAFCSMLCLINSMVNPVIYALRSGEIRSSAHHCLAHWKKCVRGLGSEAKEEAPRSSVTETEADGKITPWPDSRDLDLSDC

| Compound | EC50 [nM] | agonistic activity | EC50 (CHO cells expressing human CB2R, inhibition of forskolin-stimulated cAMP synthesis, compounds having agonist activity, read-out: CB2 EC50) [nM] |
| --- | --- | --- | --- |
| CCCS(=O)(=O)C(C)(C)C(=O)Nc1cc(C(C)(C)C)on1 [N-(5-tert-Butyl-isoxazol-3-yl)-2-methyl-2-(propane-1-sulfonyl)-propionamide] | 61.9 | agonistic activity |  |
| CC(C)(C(=O)Nc1nc(C(F)(F)F)cs1)S(=O)(=O)C1CCCC1 [2-Cyclopentanesulfonyl-2-methyl-N-(4-trifluoromethyl-thiazol-2-yl)-propionamide] |  | agonistic activity |  |
| CC(C)(C)c1cc(NC(=O)C(C)(C)S(=O)(=O)CC2CCCO2)no1 (centres unmarked) [N-(5-tert-Butyl-isoxazol-3-yl)-2-methyl-2-(tetrahydro-furan-2-ylmethanesulfonyl)-propionamide] | 70.5 | agonistic activity |  |
| CC(C)(C(=O)Nc1cnc2ccccc2c1)S(=O)(=O)CC1CCOCC1 [2-Methyl-N-quinolin-3-yl-2-(tetrahydro-pyran-4-ylmethanesulfonyl)-propionamide] | 86 | agonistic activity |  |
| Cn1nc(C(C)(C)C)cc1NC(=O)C(C)(C)S(=O)(=O)CC1CCCO1 (centres unmarked) [N-(5-tert-Butyl-2-methyl-2H-pyrazol-3-yl)-2-methyl-2-(tetrahydro-furan-2-ylmethanesulfonyl)-propionamide] |  | agonistic activity |  |
| CC(C)(C)c1cc(NC(=O)C(C)(C)S(=O)(=O)C2CCCCC2)no1 [N-(5-tert-Butyl-isoxazol-3-yl)-2-cyclohexanesulfonyl-2-methyl-propionamide] | 0.2 | agonistic activity |  |
| CC(C)(C(=O)Nc1nc2ccccc2s1)S(=O)(=O)CC1CCOCC1 [N-Benzothiazol-2-yl-2-methyl-2-(tetrahydro-pyran-4-ylmethanesulfonyl)-propionamide] | 27.9 | agonistic activity |  |
| CC(C)(C(=O)Nc1cccc(C(F)(F)F)n1)S(=O)(=O)CC1CCOCC1 [2-Methyl-2-(tetrahydro-pyran-4-ylmethanesulfonyl)-N-(6-trifluoromethyl-pyridin-2-yl)-propionamide] |  | agonistic activity |  |
| CC(C)(C)c1csc(NC(=O)C(C)(C)S(C)(=O)=O)n1 [N-(4-tert-Butyl-thiazol-2-yl)-2-methanesulfonyl-2-methyl-propionamide] |  | agonistic activity |  |
| CCC(C)S(=O)(=O)C(C)(C)C(=O)Nc1cc(C(C)(C)C)on1 (centres unmarked) [2-(Butane-2-sulfonyl)-N-(5-tert-butyl-isoxazol-3-yl)-2-methyl-propionamide] |  | agonistic activity | 18.7 |
| CC(=O)N1CCCC(CS(=O)(=O)C(C)(C)C(=O)Nc2cc(C(C)(C)C)on2)C1 (centres unmarked) [2-(1-Acetyl-piperidin-3-ylmethanesulfonyl)-N-(5-tert-butyl-isoxazol-3-yl)-2-methyl-propionamide] |  | agonistic activity |  |
| CC(C)(C)c1cc(NC(=O)C(C)(C)S(=O)(=O)CC2CCCCO2)on1 (centres unmarked) [N-(3-tert-Butyl-isoxazol-5-yl)-2-methyl-2-(tetrahydro-pyran-2-ylmethanesulfonyl)-propionamide] | 0.2 | agonistic activity |  |
| CC(C)(C(=O)Nc1ccc(C(F)(F)F)cn1)S(=O)(=O)CC1CC1 [2-Cyclopropylmethanesulfonyl-2-methyl-N-(5-trifluoromethyl-pyridin-2-yl)-propionamide] |  | agonistic activity |  |
| Cc1nc(NC(=O)C(C)(C)S(=O)(=O)C2CCOCC2)sc1C(C)(C)C [N-(5-tert-Butyl-4-methyl-thiazol-2-yl)-2-methyl-2-(tetrahydro-pyran-4-sulfonyl)-propionamide] | 0.3 | agonistic activity |  |
| CC(C)(C(=O)Nc1cc2ccccc2cn1)S(=O)(=O)CC1CCOCC1 [N-Isoquinolin-3-yl-2-methyl-2-(tetrahydro-pyran-4-ylmethanesulfonyl)-propionamide] | 99.1 | agonistic activity |  |
| CC(C)S(=O)(=O)C(C)(C)C(=O)Nc1ccc2ccccc2n1 [2-Methyl-2-(propane-2-sulfonyl)-N-quinolin-2-yl-propionamide] |  | agonistic activity |  |
| CC(C)(C)c1nnc(NC(=O)C(C)(C)S(=O)(=O)CC2CCOCC2)s1 [N-(5-tert-Butyl-[1,3,4]thiadiazol-2-yl)-2-methyl-2-(tetrahydro-pyran-4-ylmethanesulfonyl)-propionamide] |  | agonistic activity |  |
| CC(C)(C)c1cccc(NC(=O)C(C)(C)S(=O)(=O)CC2CCOCC2)c1 [N-(3-tert-Butyl-phenyl)-2-methyl-2-(tetrahydro-pyran-4-ylmethanesulfonyl)-propionamide] | 14.3 | agonistic activity |  |

| Compound | EC50 [nM] | agonistic activity | EC50 (CHO cells expressing human CB2R, inhibition of forskolin-stimulated cAMP synthesis, compounds having agonist activity, read-out: CB2 EC50) [nM] |
| --- | --- | --- | --- |
| CC(C)(C(=O)Nc1ccc(C(F)(F)F)cn1)S(=O)(=O)CC1CCOCC1 [2-Methyl-2-(tetrahydro-pyran-4-ylmethanesulfonyl)-N-(5-trifluoromethyl-pyridin-2-yl)-propionamide] | 72.3 | agonistic activity |  |
| CC(C)S(=O)(=O)C(C)(C)C(=O)Nc1cc2ccccc2cn1 [N-Isoquinolin-3-yl-2-methyl-2-(propane-2-sulfonyl)-propionamide] |  | agonistic activity |  |
| CC(C)S(=O)(=O)C(C)(C)C(=O)Nc1cc(-c2cccs2)nn1C [2-Methyl-N-(2-methyl-5-thiophen-2-yl-2H-pyrazol-3-yl)-2-(propane-2-sulfonyl)-propionamide] |  | agonistic activity |  |
| CCCS(=O)(=O)C(C)(C)C(=O)Nc1nc(-c2ccc(Cl)cc2)cs1 [N-[4-(4-Chloro-phenyl)-thiazol-2-yl]-2-methyl-2-(propane-1-sulfonyl)-propionamide] | 13 | agonistic activity |  |
| CC(C)(C(=O)Nc1nc(-c2ccccn2)cs1)S(=O)(=O)CC1CCOCC1 [2-Methyl-N-(4-pyridin-2-yl-thiazol-2-yl)-2-(tetrahydro-pyran-4-ylmethanesulfonyl)-propionamide] |  | agonistic activity |  |
| CC(C)CS(=O)(=O)C(C)(C)C(=O)Nc1cc(C(C)(C)C)on1 [N-(5-tert-Butyl-isoxazol-3-yl)-2-methyl-2-(2-methyl-propane-1-sulfonyl)-propionamide] | 44.6 | agonistic activity |  |
| CC(C)CCS(=O)(=O)C(C)(C)C(=O)Nc1cc(C(C)(C)C)nn1C [N-(5-tert-Butyl-2-methyl-2H-pyrazol-3-yl)-2-methyl-2-(3-methyl-butane-1-sulfonyl)-propionamide] | 15.4 | agonistic activity |  |
| CCCS(=O)(=O)C(C)(C)C(=O)Nc1nc(-c2ccccc2)c(CC)s1 [N-(5-Ethyl-4-phenyl-thiazol-2-yl)-2-methyl-2-(propane-1-sulfonyl)-propionamide] | 10.8 | agonistic activity |  |
| CC(C)S(=O)(=O)C(C)(C)C(=O)Nc1ccc2ccccc2c1 [2-Methyl-N-naphthalen-2-yl-2-(propane-2-sulfonyl)-propionamide] |  | agonistic activity |  |
| CC(C)(C)c1csc(NC(=O)C2(S(=O)(=O)C3CCCCC3)CCC2)n1 [1-Cyclohexanesulfonyl-cyclobutanecarboxylic acid (4-tert-butyl-thiazol-2-yl)-amide] | 11.7 | agonistic activity |  |
| CC(C)(C)c1cc(NC(=O)C2(S(=O)(=O)C3CCCCC3)CCC2)no1 [1-Cyclohexanesulfonyl-cyclobutanecarboxylic acid (5-tert-butyl-isoxazol-3-yl)-amide] | 0.5 | agonistic activity |  |
| CC(C)(C(=O)Nc1cc(C(F)(F)F)ccn1)S(=O)(=O)C1CCCC1 [2-Cyclopentanesulfonyl-2-methyl-N-(4-trifluoromethyl-pyridin-2-yl)-propionamide] |  | agonistic activity |  |
| CC(C)(C(=O)Nc1ccc(C(F)(F)F)cn1)S(=O)(=O)C1CCCC1 [2-Cyclopentanesulfonyl-2-methyl-N-(5-trifluoromethyl-pyridin-2-yl)-propionamide] |  | agonistic activity |  |
| CC(C)C(C(=O)Nc1cc(C(C)(C)C)on1)S(=O)(=O)C(C)C (centres unmarked) [N-(5-tert-Butyl-isoxazol-3-yl)-3-methyl-2-(propane-2-sulfonyl)-butyramide] |  | agonistic activity |  |
| CC(C)CCS(=O)(=O)C(C)(C)C(=O)Nc1ccc(C(F)(F)F)cn1 [2-Methyl-2-(3-methyl-butane-1-sulfonyl)-N-(5-trifluoromethyl-pyridin-2-yl)-propionamide] | 19.9 | agonistic activity |  |
| Cn1nc(C(C)(C)C)cc1NC(=O)C(C)(C)S(=O)(=O)C1CCCCCC1 [N-(5-tert-Butyl-2-methyl-2H-pyrazol-3-yl)-2-cycloheptanesulfonyl-2-methyl-propionamide] | 6.5 | agonistic activity |  |
| CC(C)(C)c1cc(NC(=O)C(C)(C)S(=O)(=O)C2CCOCC2)on1 [N-(3-tert-Butyl-isoxazol-5-yl)-2-methyl-2-(tetrahydro-pyran-4-sulfonyl)-propionamide] | 0.1 | agonistic activity |  |
| CC(C)S(=O)(=O)C(C)(C)C(=O)Nc1cc(C(C)(C)C)nn1C [N-(5-tert-Butyl-2-methyl-2H-pyrazol-3-yl)-2-methyl-2-(propane-2-sulfonyl)-propionamide] |  | agonistic activity |  |
